target: endogenous cellular BACE2 in the Ins1e rat cell line (Rattus norvegicus (Rat), UniProt Q6IE75); assay: Assay for BACE inhibition by measuring cellular TMEM27 cleavage (ELISA of shed hTMEM27 from INS-TMEM27 cells); format: cell-based; conditions: assay a): cellular TMEM27 cleavage, INS-TMEM27 cells (superscript a)
Summary of the method: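 INS1e-derived cells with doxycycline-inducible (TetOn) full-length human TMEM27 get inhibitor 2 h before 500 ng/ml doxycycline, then 46 h further culture at 37 °C. Shed TMEM27 in supernatant measured by sandwich ELISA (anti-extracellular-domain antibodies); EC50 from concentration-response curve fit.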

endogenous cellular BACE2 in the Ins1e rat cell line, sequence (Q6IE75 63-514): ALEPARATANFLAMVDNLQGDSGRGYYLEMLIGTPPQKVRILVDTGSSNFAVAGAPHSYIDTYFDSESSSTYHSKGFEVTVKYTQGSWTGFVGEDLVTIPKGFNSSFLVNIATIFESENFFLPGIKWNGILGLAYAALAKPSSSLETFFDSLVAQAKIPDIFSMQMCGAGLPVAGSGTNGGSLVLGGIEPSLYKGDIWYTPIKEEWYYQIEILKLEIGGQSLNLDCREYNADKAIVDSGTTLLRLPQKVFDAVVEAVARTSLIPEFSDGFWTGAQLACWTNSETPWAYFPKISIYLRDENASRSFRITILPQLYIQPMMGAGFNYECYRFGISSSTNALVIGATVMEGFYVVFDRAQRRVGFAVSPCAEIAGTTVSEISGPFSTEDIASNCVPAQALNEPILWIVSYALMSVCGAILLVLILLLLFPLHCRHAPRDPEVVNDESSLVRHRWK

| SMILES | IC50 |
| --- | --- |
| CN1C(=O)C(C)(C)[C@@](C)(c2cc(NCC(F)(F)F)ccc2F)N=C1N [Example 75, (S)-2-Amino-6-(2-fluoro-5-(2,2,2-trifluoroethylamino)phenyl)-3,5,5,6-tetramethyl-5,6-dihydropyrimidin-4(3H)-one] | 12 nM |
| Cc1ncsc1CNc1ccc(F)c([C@@]2(C)N=C(N)N(C)C(=O)C2(C)C)c1 [Example 78, (S)-2-Amino-6-{2-fluoro-5-[(4-methyl-thiazol-5-ylmethyl)-amino]-phenyl}-3,5,5,6-tetramethyl-5,6-dihydro-3H-pyrimidin-4-one] | 156 nM |
| COc1cccc(Nc2ccc(F)c([C@@]3(C)N=C(N)N(C)C(=O)C3(C)C)c2)c1 [Example 79, (S)-2-Amino-6-(2-fluoro-5-(3-methoxyphenylamino)phenyl)-3,5,5,6-tetramethyl-5,6-dihydropyrimidin-4(3H)-one] | 44 nM |
| CC(Nc1ccc(F)c([C@@]2(C)N=C(N)N(C)C(=O)C2(C)C)c1)c1ncccn1 (stereo partly drawn) [Example 80, (S)-2-Amino-6-[2-fluoro-5-(1-pyrimidin-2-yl-ethylamino)-phenyl]-3,5,5,6-tetramethyl-5,6-dihydro-3H-pyrimidin-4-one] | 44 nM |
| CN1C(=O)C(C)(C)[C@@](C)(c2cc(Nc3ccc(F)cc3F)ccc2F)N=C1N [Example 81, (S)-2-Amino-6-(5-(2,4-difluorophenylamino)-2-fluorophenyl)-3,5,5,6-tetramethyl-5,6-dihydropyrimidin-4(3H)-one] | 223 nM |
| COc1cc(F)ccc1Nc1ccc(F)c([C@@]2(C)N=C(N)N(C)C(=O)C2(C)C)c1 [Example 82, (S)-2-Amino-6-(2-fluoro-5-(4-fluoro-2-methoxyphenylamino)phenyl)-3,5,5,6-tetramethyl-5,6-dihydropyrimidin-4(3H)-one] | 135 nM |
| CC(CNc1ccc(F)c([C@@]2(C)N=C(N)N(C)C(=O)C2(C)C)c1)C(F)(F)F (stereo partly drawn) [Example 83, (S)-2-Amino-6-[2-fluoro-5-(3,3,3-trifluoro-2-methyl-propylamino)-phenyl]-3,5,5,6-tetramethyl-5,6-dihydro-3H-pyrimidin-4-one] | 12 nM |
| CN1C(=O)C(C)(C)[C@@](C)(c2cc(NCc3ccon3)ccc2F)N=C1N [Example 86, (S)-2-Amino-6-{2-fluoro-5-[(isoxazol-3-ylmethyl)-amino]phenyl}-3,5,5,6-tetramethyl-5,6-dihydro-3H-pyrimidin-4-one] | 236 nM |
| CN1C(=O)C(C)(C)[C@@](C)(c2cc(NCC3(C(F)(F)F)CC3)ccc2F)N=C1N [Example 87, (S)-2-Amino-6-{2-fluoro-5-[(1-trifluoromethyl-cyclopropylmethyl)-amino]-phenyl}-3,5,5,6-tetramethyl-5,6-dihydro-3H-pyrimidin-4-one] | 119 nM |
| CN1C(=O)C(C)(C)[C@@](C)(c2cc(Nc3cccc(F)c3)ccc2F)N=C1N [Example 88, (S)-2-Amino-6-[2-fluoro-5-(3-fluoro-phenylamino)-phenyl]-3,5,5,6-tetramethyl-5,6-dihydro-3H-pyrimidin-4-one] | 795 nM |
| CN1C(=O)C(C)(C)[C@@](C)(c2cc(N[C@H]3CCC[C@@H]3O)ccc2F)N=C1N [Example 92, (S)-2-Amino-6-(2-fluoro-5-((1S,2S)-2-hydroxycyclopentylamino)phenyl)-3,5,5,6-tetramethyl-5,6-dihydropyrimidin-4(3H)-one] | 279 nM |
| CC(=O)OC1CC2CC1CC2Nc1ccc(F)c([C@@]2(C)N=C(N)N(C)C(=O)C2(C)C)c1 (stereo partly drawn) [Example 93, Acetic acid 5-[3-((S)-2-amino-1,4,5,5-tetramethyl-6-oxo-1,4,5,6-tetrahydro-pyrimidin-4-yl)-4-fluoro-phenylamino]-bicyclo[2.2.1]hept-2-yl ester] | 25 nM |
| COc1cc(C(F)(F)F)ccc1Nc1ccc(F)c([C@@]2(C)N=C(N)N(C)C(=O)C2(C)C)c1 [Example 94, (S)-2-Amino-6-[2-fluoro-5-(2-methoxy-(4-trifluoromethyl)-phenylamino)-phenyl]-3,5,5,6-tetramethyl-5,6-dihydro-3H-pyrimidin-4-one] | 704 nM |
| COC(=O)CC1CCC(Nc2ccc(F)c([C@@]3(C)N=C(N)N(C)C(=O)C3(C)C)c2)C1 (stereo partly drawn) [Example 95, {3-[3-((S)-2-Amino-1,4,5,5-tetramethyl-6-oxo-1,4,5,6-tetrahydro-pyrimidin-4-yl)-4-fluoro-phenylamino]-cyclopentyl}-acetic acid methyl ester] | 406 nM |
| CN1C(=O)C(C)(C)[C@@](C)(c2cc(NCc3nn(C)cc3Cl)ccc2F)N=C1N [Example 96, (S)-2-Amino-6-{5-[(4-chloro-1-methyl-1H-pyrazol-3-ylmethyl)-amino]-2-fluoro-phenyl}-3,5,5,6-tetramethyl-5,6-dihydro-3H-pyrimidin-4-one] | 1 nM |
| CCOC(=O)CC1CCC(Nc2ccc(F)c([C@@]3(C)N=C(N)N(C)C(=O)C3(C)C)c2)C1(C)C (stereo partly drawn) [Example 98, {3-[3-((S)-2-Amino-1,4,5,5-tetramethyl-6-oxo-1,4,5,6-tetrahydro-pyrimidin-4-yl)-4-fluoro-phenylamino]-2,2-dimethyl-cyclopentyl}-acetic acid ethyl ester] | 57 nM |
| CN1C(=O)C(C)(C)[C@@](C)(c2cc(Nc3ccn(C)n3)ccc2F)N=C1N [Example 99, (S)-2-Amino-6-[2-fluoro-5-(1-methyl-1H-pyrazol-3-ylamino)-phenyl]-3,5,5,6-tetramethyl-5,6-dihydro-3H-pyrimidin-4-one] | 6 nM |
| CCOC(=O)[C@H]1[C@@H]2C[C@@H](O)C(Nc3ccc(F)c([C@@]4(C)N=C(N)N(C)C(=O)C4(C)C)c3)[C@@H]21 (stereo partly drawn) [Example 100, (1S,3R,5R,6S)-ethyl 2-(3-((S)-2-amino-1,4,5,5-tetramethyl-6-oxo-1,4,5,6-tetrahydropyrimidin-4-yl)-4-fluorophenylamino)-3-hydroxybicyclo[3.1.0]hexane-6-carboxylate] | 1 nM |
| CN1C(=O)C(C)(C)[C@@](C)(c2cc(NC3CC4CC3CC4O)ccc2F)N=C1N (stereo partly drawn) [Example 101, (6S)-2-Amino-6-(2-fluoro-5-(5-hydroxybicyclo[2.2.1]heptan-2-ylamino)phenyl)-3,5,5,6-tetramethyl-5,6-dihydropyrimidin-4(3H)-one] | 1 nM |
| CN1C(=O)C(C)(C)[C@@](C)(c2cc(Nc3ccccn3)ccc2F)N=C1N [Example 105, (S)-2-Amino-6-(2-fluoro-5-(pyridin-2-ylamino)phenyl)-3,5,5,6-tetramethyl-5,6-dihydropyrimidin-4(3H)-one] | 12 nM |
| CN1C(=O)C(C)(C)[C@@](C)(c2cc(NC3CC(C)(C)c4ccccc43)ccc2F)N=C1N (stereo partly drawn) [Example 106, (6S)-2-Amino-6-(5-(3,3-dimethyl-2,3-dihydro-1H-inden-1-ylamino)-2-fluorophenyl)-3,5,5,6-tetramethyl-5,6-dihydropyrimidin-4(3H)-one] | 2 nM |

More lines, now with the values ahead:

| IC50 | SMILES |
| --- | --- |
| 15 nM | CN1C(=O)C(C)(C)[C@@](C)(c2cc(NCC3CCOC3)ccc2F)N=C1N (stereo partly drawn) [Example 76, (S)-2-Amino-6-{2-fluoro-5-[(tetrahydro-furan-3-ylmethyl)-amino]phenyl}-3,5,5,6-tetramethyl-5,6-dihydro-3H-pyrimidin-4-one] |
| 69 nM | COc1ccc(F)cc1Nc1ccc(F)c([C@@]2(C)N=C(N)N(C)C(=O)C2(C)C)c1 [Example 84, (S)-2-Amino-6-(2-fluoro-5-(5-fluoro-2-methoxyphenylamino)phenyl)-3,5,5,6-tetramethyl-5,6-dihydropyrimidin-4(3H)-one] |
| 101 nM | CN1C(=O)C(C)(C)[C@@](C)(c2cc(NCc3ncccn3)ccc2F)N=C1N [Example 85, (S)-2-Amino-6-{2-fluoro-5-[(pyrimidin-2-ylmethyl)-amino]-phenyl}-3,5,5,6-tetramethyl-5,6-dihydro-3H-pyrimidin-4-one] |
| 1140 nM | CN1C(=O)C(C)(C)[C@@](C)(c2cc(Nc3ccc(F)cc3)ccc2F)N=C1N [Example 89, (S)-2-Amino-6-[2-fluoro-5-(4-fluoro-phenylamino)-phenyl]-3,5,5,6-tetramethyl-5,6-dihydro-3H-pyrimidin-4-one] |
| 467 nM | CN1C(=O)C(C)(C)[C@@](C)(c2cc(NCC3CCCOC3)ccc2F)N=C1N (stereo partly drawn) [Example 90, (S)-2-Amino-6-{2-fluoro-5-[(tetrahydro-pyran-3-ylmethyl)-amino]-phenyl}-3,5,5,6-tetramethyl-5,6-dihydro-3H-pyrimidin-4-one] |
| 322 nM | CCNc1ccc(F)c([C@@]2(C)N=C(N)N(C)C(=O)C2(C)C)c1 [Example 91, (S)-2-Amino-6-(5-ethylamino-2-fluoro-phenyl)-3,5,5,6-tetramethyl-5,6-dihydro-3H-pyrimidin-4-one] |
| 242 nM | CN1C(=O)C(C)(C)[C@@](C)(c2cc(NC[C@@H]3C[C@H]3c3ccccc3)ccc2F)N=C1N [Example 97, (S)-2-Amino-6-{2-fluoro-5-[((1R,2R)-2-phenyl-cyclopropylmethyl)-amino]-phenyl}-3,5,5,6-tetramethyl-5,6-dihydro-3H-pyrimidin-4-one] |
| 217 nM | COc1cc(F)c(F)cc1Nc1ccc(F)c([C@@]2(C)N=C(N)N(C)C(=O)C2(C)C)c1 [Example 102, (S)-2-Amino-6-[5-(4,5-difluoro-2-methoxy-phenylamino)-2-fluoro-phenyl]-3,5,5,6-tetramethyl-5,6-dihydro-3H-pyrimidin-4-one] |
| 1 nM | CN1C(=O)C(C)(C)[C@@](C)(c2cc(Nc3ccccc3C#N)ccc2F)N=C1N [Example 103, (S)-2-(3-(2-Amino-1,4,5,5-tetramethyl-6-oxo-1,4,5,6-tetrahydropyrimidin-4-yl)-4-fluorophenylamino)benzonitrile] |
| 4 nM | Cc1cc(CNc2ccc(F)c([C@@]3(C)N=C(N)N(C)C(=O)C3(C)C)c2)no1 [Example 104, (S)-2-Amino-6-{2-fluoro-5-[(5-methyl-isoxazol-3-ylmethyl)-amino]-phenyl}-3,5,5,6-tetramethyl-5,6-dihydro-3H-pyrimidin-4-one] |

— patent publication US8815881B2 (Hoffmann-La Roche Inc., priority 2010, dated 2014)
